Source: ChEMBL document CHEMBL1201862, “PubChem BioAssay data set” (2004)
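Five concentrations, 48 hours, 96-well plates. GI50 is the concentration that inhibits growth by half.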 The source made the active and inactive calls. Rule as the data show it: active = GI50 up to about 1.1 µM and inactive = higher.

Experiments:
Assay in all cases: growth of human tumour cells (NCI), 48 h
786-0 = tested on: 786-0
A498 = tested on: A498
A549 = tested on: A549
BT-549 = tested on: BT-549
CAKI-1 = tested on: CAKI-1
CCRF-CEM = tested on: CCRF-CEM
COLO 205 = tested on: COLO 205
DU-145 = tested on: DU-145
EKVX = tested on: EKVX
HCT-116 = tested on: HCT-116
HCT-15 = tested on: HCT-15
HL-60 = tested on: HL-60
HOP-62 = tested on: HOP-62
HT-29 = tested on: HT-29
Hs-578T = tested on: Hs-578T
IGROV-1 = tested on: IGROV-1
K562 = tested on: K562
KM12 = tested on: KM12
LOX IMVI = tested on: LOX IMVI
M14 = tested on: M14
MCF7 = tested on: MCF7
MDA-MB-231 = tested on: MDA-MB-231
MDA-MB-435 = tested on: MDA-MB-435
MDA-N = tested on: MDA-N
MOLT-4 = tested on: MOLT-4
Malme-3M = tested on: Malme-3M
NCI-H226 = tested on: NCI-H226
NCI-H460 = tested on: NCI-H460
NCI-H522 = tested on: NCI-H522
NCI/ADR-RES = tested on: NCI/ADR-RES
OVCAR-3 = tested on: OVCAR-3
OVCAR-4 = tested on: OVCAR-4
OVCAR-5 = tested on: OVCAR-5
OVCAR-8 = tested on: OVCAR-8
PC-3 = tested on: PC-3
RPMI-8226 = tested on: RPMI-8226
RXF 393 = tested on: RXF 393
SF-268 = tested on: SF-268
SF-295 = tested on: SF-295
SF-539 = tested on: SF-539
SK-MEL-28 = tested on: SK-MEL-28
SK-MEL-2 = tested on: SK-MEL-2
SK-MEL-5 = tested on: SK-MEL-5
SK-OV-3 = tested on: SK-OV-3
SN12C = tested on: SN12C
SNB-19 = tested on: SNB-19
SNB-75 = tested on: SNB-75
SR = tested on: SR
SW-620 = tested on: SW-620
T47D = tested on: T47D
TK-10 = tested on: TK-10
U-251 = tested on: U-251
UACC-257 = tested on: UACC-257
UACC-62 = tested on: UACC-62
UO-31 = tested on: UO-31
ACHN = tested on: ACHN
NCI-H23 = tested on: NCI-H23
HCC 2998 = tested on: HCC 2998

For O=C(NNC(=O)c1ccccc1O)c1ccc(O)cc1, the GI50 (786-0) was 46.8 µM (inactive), the GI50 (A498) was > 100 µM (inactive) and the GI50 (A549) was 38.8 µM (inactive). For the same molecule, the GI50 (BT-549) was 40.6 µM (inactive), the GI50 (CAKI-1) was 50.9 µM (inactive) and the GI50 (CCRF-CEM) was 70.8 µM (inactive). The GI50 (COLO 205) was 47.8 µM (inactive), the GI50 (DU-145) was 76.7 µM (inactive) and the GI50 (EKVX) was 38.3 µM (inactive). For the same molecule, the GI50 (HCT-116) was 33.2 µM (inactive), the GI50 (HCT-15) was 19.2 µM and the GI50 (HL-60) was 52.8 µM (inactive). For the same molecule, the GI50 (HOP-62) was 47.5 µM (inactive), the GI50 (HT-29) was 37.4 µM (inactive) and the GI50 (Hs-578T) was > 100 µM (inactive). For the same molecule, the GI50 (IGROV-1) was 23.9 µM (inactive), the GI50 (K562) was 84.9 µM (inactive) and the GI50 (KM12) was 45.3 µM (inactive). The GI50 (LOX IMVI) was 31.6 µM (inactive), the GI50 (M14) was 23.7 µM (inactive) and the GI50 (MCF7) was 58.9 µM (inactive). For the same molecule, the GI50 (MDA-MB-231) was 10.2 µM (inactive), the GI50 (MDA-MB-435) was 69.7 µM (inactive) and the GI50 (MDA-N) was > 100 µM (inactive). For the same molecule, the GI50 (MOLT-4) was 36.4 µM (inactive), the GI50 (Malme-3M) was 14.5 µM (inactive) and the GI50 (NCI-H226) was 14.8 µM (inactive). The GI50 (NCI-H460) was 31.5 µM (inactive), the GI50 (NCI-H522) was 13.1 µM (inactive) and the GI50 (NCI/ADR-RES) was 22.1 µM (inactive). For the same molecule, the GI50 (OVCAR-3) was 38.4 µM (inactive), the GI50 (OVCAR-4) was 91.6 µM (inactive) and the GI50 (OVCAR-5) was > 100 µM (inactive). For the same molecule, the GI50 (OVCAR-8) was 21.1 µM (inactive), the GI50 (PC-3) was 37.6 µM (inactive) and the GI50 (RPMI-8226) was 81.5 µM (inactive). For the same molecule, the GI50 (RXF 393) was > 100 µM (inactive), the GI50 (SF-268) was 9.95 µM (inactive) and the GI50 (SF-295) was 33 µM (inactive). For the same molecule, the GI50 (SF-539) was 66.7 µM (inactive), the GI50 (SK-MEL-28) was > 100 µM (inactive) and the GI50 (SK-MEL-2) was 22.5 µM (inactive). The GI50 (SK-MEL-5) was > 100 µM (inactive), the GI50 (SK-OV-3) was 33.4 µM (inactive) and the GI50 (SN12C) was > 100 µM (inactive). For the same molecule, the GI50 (SNB-19) was > 100 µM (inactive), the GI50 (SNB-75) was 24.4 µM (inactive) and the GI50 (SR) was 49.1 µM (inactive). For the same molecule, the GI50 (SW-620) was 81.3 µM (inactive), the GI50 (T47D) was > 100 µM (inactive) and the GI50 (TK-10) was > 100 µM (inactive). The GI50 (U-251) was > 100 µM (inactive), the GI50 (UACC-257) was 89.1 µM (inactive) and the GI50 (UACC-62) was 28.1 µM (inactive). For the same molecule, the GI50 (UO-31) was 42 µM (inactive).

N/C(=N\c1c([N+](=O)[O-])cnc2ccccc12)N1CCOCC1 was tested, and the GI50 (786-0) was > 100 µM (inactive), the GI50 (A498) was > 100 µM (inactive) and the GI50 (A549) was > 100 µM (inactive). For the same molecule, the GI50 (ACHN) was > 100 µM (inactive), the GI50 (BT-549) was > 100 µM (inactive) and the GI50 (CAKI-1) was > 100 µM (inactive). For the same molecule, the GI50 (CCRF-CEM) was > 100 µM (inactive), the GI50 (COLO 205) was > 100 µM (inactive) and the GI50 (DU-145) was > 100 µM (inactive). The GI50 (EKVX) was > 100 µM (inactive), the GI50 (HCT-116) was > 100 µM (inactive) and the GI50 (HCT-15) was greater than 100 µM. The GI50 (HL-60) was > 100 µM (inactive), the GI50 (HOP-62) was > 100 µM (inactive) and the GI50 (HT-29) was > 100 µM (inactive). For the same molecule, the GI50 (Hs-578T) was > 100 µM (inactive), the GI50 (IGROV-1) was > 100 µM (inactive) and the GI50 (K562) was > 100 µM (inactive). For the same molecule, the GI50 (KM12) was > 100 µM (inactive), the GI50 (LOX IMVI) was > 100 µM (inactive) and the GI50 (M14) was > 100 µM (inactive). For the same molecule, the GI50 (MCF7) was > 100 µM (inactive), the GI50 (MDA-MB-231) was > 100 µM (inactive) and the GI50 (MDA-MB-435) was > 100 µM (inactive). The GI50 (MDA-N) was > 100 µM (inactive), the GI50 (MOLT-4) was > 100 µM (inactive) and the GI50 (NCI-H226) was > 100 µM (inactive). The GI50 (NCI-H23) was > 100 µM (inactive), the GI50 (NCI-H460) was > 100 µM (inactive) and the GI50 (NCI-H522) was > 100 µM (inactive). For the same molecule, the GI50 (NCI/ADR-RES) was 95.9 µM (inactive), the GI50 (OVCAR-3) was > 100 µM (inactive) and the GI50 (OVCAR-4) was > 100 µM (inactive). For the same molecule, the GI50 (OVCAR-5) was > 100 µM (inactive), the GI50 (OVCAR-8) was > 100 µM (inactive) and the GI50 (PC-3) was > 100 µM (inactive). For the same molecule, the GI50 (RPMI-8226) was > 100 µM (inactive), the GI50 (SF-268) was > 100 µM (inactive) and the GI50 (SF-295) was 86.9 µM (inactive). For the same molecule, the GI50 (SF-539) was > 100 µM (inactive), the GI50 (SK-MEL-28) was > 100 µM (inactive) and the GI50 (SK-MEL-2) was > 100 µM (inactive). The GI50 (SK-MEL-5) was > 100 µM (inactive), the GI50 (SK-OV-3) was > 100 µM (inactive) and the GI50 (SN12C) was > 100 µM (inactive). The GI50 (SNB-19) was > 100 µM (inactive), the GI50 (SNB-75) was > 100 µM (inactive) and the GI50 (SR) was > 100 µM (inactive). For the same molecule, the GI50 (SW-620) was > 100 µM (inactive), the GI50 (T47D) was > 100 µM (inactive) and the GI50 (TK-10) was > 100 µM (inactive). For the same molecule, the GI50 (U-251) was > 100 µM (inactive), the GI50 (UACC-257) was > 10 µM (inactive) and the GI50 (UACC-62) was > 100 µM (inactive). For the same molecule, the GI50 (UO-31) was > 100 µM (inactive).

With CC(=O)c1c2c(cc3c1CC1(Cc4cc5c(cc4C1=O)CCC5)C3)CCC2 (configuration not stated) the GI50 (786-0) was > 54.5 µM (inactive), the GI50 (A498) was > 100 µM (inactive) and the GI50 (A549) was 42.2 µM (inactive). The GI50 (ACHN) was > 68.7 µM (inactive), the GI50 (BT-549) was 27 µM (inactive) and the GI50 (CAKI-1) was 17.3 µM (inactive). For the same molecule, the GI50 (CCRF-CEM) was 14.6 µM (inactive), the GI50 (COLO 205) was 64.6 µM (inactive) and the GI50 (DU-145) was > 72.3 µM (inactive). For the same molecule, the GI50 (EKVX) was 36.1 µM (inactive), the GI50 (HCC 2998) was 72.9 µM (inactive) and the GI50 (HCT-116) was 9.12 µM (inactive). The GI50 (HCT-15) was 63 µM, the GI50 (HL-60) was 7.21 µM (inactive) and the GI50 (HOP-62) was > 100 µM (inactive). For the same molecule, the GI50 (HT-29) was 54.2 µM (inactive), the GI50 (Hs-578T) was > 100 µM (inactive) and the GI50 (IGROV-1) was > 100 µM (inactive). For the same molecule, the GI50 (K562) was 14 µM (inactive), the GI50 (KM12) was 53.5 µM (inactive) and the GI50 (LOX IMVI) was 38.3 µM (inactive). For the same molecule, the GI50 (M14) was > 68.1 µM (inactive), the GI50 (MCF7) was 35.7 µM (inactive) and the GI50 (MDA-MB-231) was 40.2 µM (inactive). The GI50 (MDA-MB-435) was 48.9 µM (inactive), the GI50 (MDA-N) was > 87.1 µM (inactive) and the GI50 (MOLT-4) was 4.95 µM (inactive). The GI50 (Malme-3M) was 39.1 µM (inactive), the GI50 (NCI-H226) was 34.3 µM (inactive) and the GI50 (NCI-H23) was 30.9 µM (inactive). The GI50 (NCI-H460) was 42.6 µM (inactive), the GI50 (NCI-H522) was 22.2 µM (inactive) and the GI50 (NCI/ADR-RES) was 22.5 µM (inactive). For the same molecule, the GI50 (OVCAR-3) was > 62.4 µM (inactive), the GI50 (OVCAR-4) was 38.5 µM (inactive) and the GI50 (OVCAR-5) was > 100 µM (inactive). The GI50 (OVCAR-8) was 71.9 µM (inactive), the GI50 (PC-3) was 13.1 µM (inactive) and the GI50 (RPMI-8226) was 10.5 µM (inactive). The GI50 (SF-268) was > 81.5 µM (inactive), the GI50 (SF-295) was 42.5 µM (inactive) and the GI50 (SF-539) was > 100 µM (inactive). The GI50 (SK-MEL-28) was > 100 µM (inactive), the GI50 (SK-MEL-2) was 79.8 µM (inactive) and the GI50 (SK-MEL-5) was 12.1 µM (inactive). The GI50 (SK-OV-3) was > 87.7 µM (inactive), the GI50 (SN12C) was > 61.4 µM (inactive) and the GI50 (SNB-19) was > 100 µM (inactive). The GI50 (SNB-75) was > 78 µM (inactive), the GI50 (SR) was 6.64 µM (inactive) and the GI50 (SW-620) was 85.5 µM (inactive). The GI50 (T47D) was 8.91 µM (inactive), the GI50 (TK-10) was > 66.1 µM (inactive) and the GI50 (U-251) was > 77.1 µM (inactive). The GI50 (UACC-257) was 13.2 µM (inactive), the GI50 (UACC-62) was > 100 µM (inactive) and the GI50 (UO-31) was 36.9 µM (inactive).
